Reference: article PMC2695604 (2009)

Biological target: isoleucyl-tRNA synthetase (IleRS) (Escherichia coli, UniProt P00956)
Test: affinity labeling with saturation kinetics of inactivation
Assay type: biochemical

isoleucyl-tRNA synthetase (IleRS), sequence (P00956 2-938): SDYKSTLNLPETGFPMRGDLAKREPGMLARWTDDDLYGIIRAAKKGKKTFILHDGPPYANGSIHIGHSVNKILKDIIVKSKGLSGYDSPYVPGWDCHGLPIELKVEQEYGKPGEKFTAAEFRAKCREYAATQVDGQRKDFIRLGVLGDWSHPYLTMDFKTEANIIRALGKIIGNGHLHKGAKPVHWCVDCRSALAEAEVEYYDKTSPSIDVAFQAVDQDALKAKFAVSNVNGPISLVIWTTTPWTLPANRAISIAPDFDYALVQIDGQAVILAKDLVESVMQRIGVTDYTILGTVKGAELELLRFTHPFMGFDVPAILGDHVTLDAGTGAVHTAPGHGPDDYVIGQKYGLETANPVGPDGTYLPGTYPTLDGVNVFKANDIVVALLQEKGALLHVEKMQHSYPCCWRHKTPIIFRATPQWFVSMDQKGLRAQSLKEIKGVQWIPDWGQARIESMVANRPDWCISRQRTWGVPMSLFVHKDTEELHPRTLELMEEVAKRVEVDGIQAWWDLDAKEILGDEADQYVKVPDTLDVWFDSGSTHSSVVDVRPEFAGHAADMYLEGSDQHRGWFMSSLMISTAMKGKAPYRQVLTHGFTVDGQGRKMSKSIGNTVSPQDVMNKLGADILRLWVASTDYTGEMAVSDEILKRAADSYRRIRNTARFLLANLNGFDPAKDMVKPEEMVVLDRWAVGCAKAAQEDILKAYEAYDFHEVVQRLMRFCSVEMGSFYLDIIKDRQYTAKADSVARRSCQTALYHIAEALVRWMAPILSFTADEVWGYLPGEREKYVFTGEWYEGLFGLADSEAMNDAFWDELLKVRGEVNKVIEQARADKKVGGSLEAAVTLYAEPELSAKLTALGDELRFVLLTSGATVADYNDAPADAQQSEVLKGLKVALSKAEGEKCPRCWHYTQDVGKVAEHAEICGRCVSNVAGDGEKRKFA

CC[C@H](C)[C@H](N)C(=O)CBr [IBMK, L-isoleucine bromomethyl ketone]
KI (inactivation): ~100 µM
